pIC50, pKi: −log10 of the molar value.
Experiments:
[1] = biological target: Protein cereblon/Androgen receptor (Homo sapiens, UniProt P10275+Q96SW2); experiment: PROTAC activity at AR/CRBN in AR-positive human VCaP cells assessed as induction of androgen receptor degradation measured at 24 hrs; assay type: cell-based
[2] = biological target: T1, Androgen receptor (Homo sapiens, UniProt P10275)
T1 sequence (P10275 whole entry): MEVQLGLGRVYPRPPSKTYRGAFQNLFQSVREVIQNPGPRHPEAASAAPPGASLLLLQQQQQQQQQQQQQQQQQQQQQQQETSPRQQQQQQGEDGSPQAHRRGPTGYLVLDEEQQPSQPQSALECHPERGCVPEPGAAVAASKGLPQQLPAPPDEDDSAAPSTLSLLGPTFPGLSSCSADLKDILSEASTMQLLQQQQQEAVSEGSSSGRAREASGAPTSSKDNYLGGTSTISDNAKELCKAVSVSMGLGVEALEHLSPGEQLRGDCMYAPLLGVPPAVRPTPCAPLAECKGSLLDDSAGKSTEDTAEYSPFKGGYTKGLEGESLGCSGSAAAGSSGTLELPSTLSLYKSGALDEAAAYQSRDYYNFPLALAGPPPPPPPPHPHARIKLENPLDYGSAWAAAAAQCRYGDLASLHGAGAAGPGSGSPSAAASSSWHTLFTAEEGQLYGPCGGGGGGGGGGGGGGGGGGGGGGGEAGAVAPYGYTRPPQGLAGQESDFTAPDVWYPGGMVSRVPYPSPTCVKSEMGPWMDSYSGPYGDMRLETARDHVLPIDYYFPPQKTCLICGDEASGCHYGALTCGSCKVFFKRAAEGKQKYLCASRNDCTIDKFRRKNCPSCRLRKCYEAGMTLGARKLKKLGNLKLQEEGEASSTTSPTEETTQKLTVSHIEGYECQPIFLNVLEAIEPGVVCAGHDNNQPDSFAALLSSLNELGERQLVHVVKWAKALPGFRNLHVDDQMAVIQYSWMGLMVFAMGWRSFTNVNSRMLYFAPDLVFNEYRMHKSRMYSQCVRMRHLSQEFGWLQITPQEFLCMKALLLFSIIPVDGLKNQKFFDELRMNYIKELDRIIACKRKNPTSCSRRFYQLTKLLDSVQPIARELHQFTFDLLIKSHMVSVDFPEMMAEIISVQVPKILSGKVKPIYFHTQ

[3] = biological target: Protein cereblon/Androgen receptor (Homo sapiens, UniProt P10275+Q96SW2, T878A); experiment: PROTAC activity at AR T878A mutant/CRBN in human LNCaP cells assessed as induction of androgen receptor degradation measured at 24 hrs by Western blot analysis; assay type: cell-based
[4] = tested on: VCaP; experiment: Growth inhibition in human VCaP cells
[5] = Half life in Sprague-Dawley rat at 2 mg/kg, iv measured upto 24 hrs by LC-MS/MS analysis; details: in vivo
[6] = Volume of distribution at steady state in Sprague-Dawley rat at 2 mg/kg, iv measured upto 24 hrs by LC-MS/MS analysis; details: in vivo
[7] = Clearance in Sprague-Dawley rat at 2 mg/kg, iv measured upto 24 hrs by LC-MS/MS analysis; details: in vivo
[8] = Half life in Sprague-Dawley rat at 5 mg/kg, po measured upto 24 hrs by LC-MS/MS analysis; details: in vivo
[9] = in vivo; details: Sprague-Dawley, rat, iv, 2 mg/kg
[10] = in vivo; details: Sprague-Dawley, rat, po, 5 mg/kg
[11] = in vivo; details: Sprague-Dawley, rat, po, 5 mg/kg; remark: listed apart in the source
[12] = in vivo; details: Sprague-Dawley, rat, po, 5 mg/kg; remark: listed apart in the source
[13] = biological target: Protein cereblon (Homo sapiens, UniProt Q96SW2); experiment: Binding affinity to CRBN (unknown origin) assessed as inhibition constant
Sequence of Protein cereblon (Q96SW2 whole entry): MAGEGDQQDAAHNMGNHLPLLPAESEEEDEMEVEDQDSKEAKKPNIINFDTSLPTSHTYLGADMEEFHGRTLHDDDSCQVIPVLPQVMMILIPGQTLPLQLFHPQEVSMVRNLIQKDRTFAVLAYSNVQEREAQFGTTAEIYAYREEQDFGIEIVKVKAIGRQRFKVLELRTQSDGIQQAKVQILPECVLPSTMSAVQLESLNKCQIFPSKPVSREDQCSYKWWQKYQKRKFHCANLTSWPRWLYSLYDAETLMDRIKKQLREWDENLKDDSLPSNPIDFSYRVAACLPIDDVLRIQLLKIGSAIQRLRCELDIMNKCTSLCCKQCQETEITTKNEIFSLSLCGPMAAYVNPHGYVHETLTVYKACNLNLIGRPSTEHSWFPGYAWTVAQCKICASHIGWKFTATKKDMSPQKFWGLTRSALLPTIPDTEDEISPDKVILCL

Sequence of Protein cereblon/Androgen receptor (Homo sapiens, UniProt P10275+Q96SW2) (Q96SW2 whole entry, one chain of several): as the sequence (Q96SW2 whole entry) above

N#Cc1ccc(N2CCC3(CCN(c4ccc(C(=O)N5CCC(CN6Cc7cc8c(cc7C6)C(=O)N(C6CCC(=O)NC6=O)C8=O)CC5)cc4)CC3)C2)cc1Cl (stereo not drawn)
DC50 ([1]; read-out: DC50): 0.0057 µM

CN1CCN(C(=O)c2ccc(N3CCC4(CCN(c5ccc(C#N)c(Cl)c5)CC4)C3)cc2)CC1
pIC50 [2]: 5.27

C[C@H]1CC2(CCN(c3ccc(C(=O)N4CC(N5Cc6cc7c(cc6C5)C(=O)N(C5CCC(=O)NC5=O)C7=O)C4)cc3)CC2)CN1c1ccc(C#N)c(Cl)c1 (stereo partly drawn)
DC50 ([1]; read-out: DC50): 0.0007 µM | DC50 [3]: 0.005 µM | pIC50 [4]: 7.07 | half-life at 24 h [5]: 3.2 h | Vd at 24 h [6]: 2.7 L/kg | clearance at 24 h [7]: 0.87 L/h/kg | half-life at 24 h [8]: 1.89 h | AUC(0-t) at 24 h [9]: 2.37 µg·h/mL | Cmax at 24 h [10]: 0.094 µg/mL | AUC(0-t) at 24 h [11]: 0.423 µg·h/mL | bioavailability at 24 h [12]: 7.2%

COC1(CN2Cc3cc4c(cc3C2)C(=O)N(C2CCC(=O)NC2=O)C4=O)CCN(C(=O)c2ccc(N3CCC4(CC3)C[C@H](C)N(c3ccc(C#N)c(Cl)c3)C4)cc2)CC1 (stereo partly drawn)
DC50 ([1]; read-out: DC50): 0.0003 µM | DC50 [3]: 0.001 µM | pIC50 [4]: 8.31 | half-life at 24 h [5]: 4.9 h | Vd at 24 h [6]: 4.1 L/kg | clearance at 24 h [7]: 0.83 L/h/kg | half-life at 24 h [8]: 5.6 h | AUC(0-t) at 24 h [9]: 2.39 µg·h/mL | Cmax at 24 h [10]: 0.179 µg/mL | AUC(0-t) at 24 h [11]: 1.32 µg·h/mL | bioavailability at 24 h [12]: 22%

CN1CCc2cc3c(cc2C1)C(=O)N(C1CCC(=O)NC1=O)C3=O (stereo not drawn)
pKi [13]: 5.22

CC[C@H]1CC2(CCN(c3ccc(C(=O)N4CCC(CN5Cc6cc7c(cc6C5)C(=O)N(C5CCC(=O)NC5=O)C7=O)CC4)cc3)CC2)CN1c1ccc(C#N)c(Cl)c1 (stereo partly drawn)
pIC50 [4]: 7.64

C[C@H]1CC2(CCN(c3ccc(C(=O)N4CCC(C)(CN5Cc6cc7c(cc6C5)C(=O)N(C5CCC(=O)NC5=O)C7=O)CC4)cc3)CC2)CN1c1ccc(C#N)c(Cl)c1 (stereo partly drawn)
DC50 ([1]; read-out: DC50): 0.0038 µM | DC50 [3]: 0.0089 µM | pIC50 [4]: 7.38 | half-life at 24 h [5]: 6.1 h | Vd at 24 h [6]: 3.1 L/kg | clearance at 24 h [7]: 0.38 L/h/kg | half-life at 24 h [8]: 8.4 h | AUC(0-t) at 24 h [9]: 5.09 µg·h/mL | Cmax at 24 h [10]: 0.539 µg/mL | AUC(0-t) at 24 h [11]: 5.73 µg·h/mL | bioavailability at 24 h [12]: 45%

N#Cc1ccc(N2CCC3(CCN(c4ccc(C(=O)N5CCC(CN6CCc7cc8c(cc7C6)C(=O)N(C6CCC(=O)NC6=O)C8=O)CC5)cc4)CC3)C2)cc1Cl (stereo not drawn)
DC50 ([1]; read-out: DC50): 0.025 µM

CN1CCN(c2ccc(C(=O)N[C@H]3CC[C@H](N(C)c4ccc(C#N)c(Cl)c4)CC3)cc2)CC1
pIC50 [2]: 7.82

CN1CCN(c2ccc(C(=O)N3CCC4(CC3)CN(c3ccc(C#N)c(Cl)c3)C4)cc2)CC1
pIC50 [2]: < 5.00

CN1CCN(C(=O)c2ccc(N3CCC4(CCN(c5ccc(C#N)c(Cl)c5)C4)C3)cc2)CC1 (stereo not drawn)
pIC50 [2]: 5.74

CN1CCN(c2ccc(C(=O)N3CCC4(CCN(c5ccc(C#N)c(Cl)c5)C4)C3)cc2)CC1 (stereo not drawn)
pIC50 [2]: 5.16

N#Cc1ccc(N2CCC3(CCN(c4ccc(C(=O)N5CCC(N6CCc7cc8c(cc7C6)C(=O)N(C6CCC(=O)NC6=O)C8=O)CC5)cc4)CC3)C2)cc1Cl (stereo not drawn)
DC50 ([1]; read-out: DC50): 0.073 µM

C[C@H]1CC2(CCN(c3ccc(C(=O)N4CCC(F)(CN5Cc6cc7c(cc6C5)C(=O)N(C5CCC(=O)NC5=O)C7=O)CC4)cc3)CC2)CN1c1ccc(C#N)c(Cl)c1 (stereo partly drawn)
DC50 ([1]; read-out: DC50): 0.0009 µM | DC50 [3]: 0.0037 µM | pIC50 [4]: 7.74 | half-life at 24 h [5]: 7.9 h | Vd at 24 h [6]: 4.2 L/kg | clearance at 24 h [7]: 0.47 L/h/kg | half-life at 24 h [8]: 5.2 h | AUC(0-t) at 24 h [9]: 4 µg·h/mL | Cmax at 24 h [10]: 0.216 µg/mL | AUC(0-t) at 24 h [11]: 1.82 µg·h/mL | bioavailability at 24 h [12]: 18%

C[C@H]1CC2(CCN(c3ccc(C(=O)N4CCC(N5Cc6cc7c(cc6C5)C(=O)N(C5CCC(=O)NC5=O)C7=O)CC4)cc3)CC2)CN1c1ccc(C#N)c(Cl)c1 (stereo partly drawn)
DC50 ([1]; read-out: DC50): 0.0004 µM | DC50 [3]: 0.0008 µM | pIC50 [4]: 7.78 | half-life at 24 h [5]: 5.5 h | Vd at 24 h [6]: 6.1 L/kg | clearance at 24 h [7]: 0.92 L/h/kg | half-life at 24 h [8]: 5.5 h | AUC(0-t) at 24 h [9]: 2.1 µg·h/mL | Cmax at 24 h [10]: 0.41 µg/mL | AUC(0-t) at 24 h [11]: 4.28 µg·h/mL | bioavailability at 24 h [12]: 81%

C[C@H]1CC2(CCN(c3ccc(C(=O)N4CCC(O)(CN5Cc6cc7c(cc6C5)C(=O)N(C5CCC(=O)NC5=O)C7=O)CC4)cc3)CC2)CN1c1ccc(C#N)c(Cl)c1 (stereo partly drawn)
DC50 ([1]; read-out: DC50): 0.29 µM

CN1CCN(c2ccc(C(=O)N3CCC4(CCN(c5ccc(C#N)c(Cl)c5)CC4)C3)cc2)CC1
pIC50 [2]: 5.30

CN1CCN(c2ccc(C(=O)N[C@H]3CC[C@H](Oc4ccc(C#N)c(Cl)c4)CC3)cc2)CC1
pIC50 [2]: 7.26

CN1CCN(C(=O)c2ccc(N3CCC4(CC3)CCN(c3ccc(C#N)c(Cl)c3)C4)cc2)CC1
pIC50 [2]: 7.10

C[C@H]1CC2(CCN(c3ccc(C(=O)N4CCC(CN5Cc6cc7c(cc6C5)C(=O)N(C5CCC(=O)NC5=O)C7=O)CC4)cn3)CC2)CN1c1ccc(C#N)c(Cl)c1 (stereo partly drawn)
DC50 ([1]; read-out: DC50): 0.0023 µM | DC50 [3]: 0.0022 µM | pIC50 [4]: 7.96

N#Cc1ccc(N2CCC3(CCN(c4ccc(C(=O)N5CCC(CCN6CCc7cc8c(cc7CC6)C(=O)N(C6CCC(=O)NC6=O)C8=O)CC5)cc4)CC3)C2)cc1Cl (stereo not drawn)
DC50 ([1]; read-out: DC50): 3 µM

CN1CCN(c2cc3c(cc2F)C(=O)N(C2CCC(=O)NC2=O)C3=O)CC1 (stereo not drawn)
pKi [13]: 5.31

C[C@@H]1CC2(CCN(c3ccc(C(=O)N4CCC(CN5Cc6cc7c(cc6C5)C(=O)N(C5CCC(=O)NC5=O)C7=O)CC4)cc3)CC2)CN1c1ccc(C#N)c(Cl)c1 (stereo partly drawn)
DC50 ([1]; read-out: DC50): 0.385 µM

N#Cc1ccc(N2CCC3(CCN(c4ccc(C(=O)N5CCC(N6Cc7cc8c(cc7C6)C(=O)N(C6CCC(=O)NC6=O)C8=O)CC5)cc4)CC3)C2)cc1Cl (stereo not drawn)
DC50 ([1]; read-out: DC50): 0.0097 µM

C[C@H]1CC2(CCN(c3ccc(C(=O)N4CC(CN5Cc6cc7c(cc6C5)C(=O)N(C5CCC(=O)NC5=O)C7=O)C4)cc3)CC2)CN1c1ccc(C#N)c(Cl)c1 (stereo partly drawn)
pIC50 [4]: 7.59 | half-life at 24 h [5]: 1.4 h | Vd at 24 h [6]: 1.8 L/kg | clearance at 24 h [7]: 1.5 L/h/kg | half-life at 24 h [8]: 1.2 h | AUC(0-t) at 24 h [9]: 1.38 µg·h/mL | Cmax at 24 h [10]: 0.078 µg/mL | AUC(0-t) at 24 h [11]: 0.31 µg·h/mL | bioavailability at 24 h [12]: 9%

C[C@H]1CC2(CCN(c3ccc(C(=O)N4CCC(CN5Cc6cc7c(cc6C5)C(=O)N(C5CCC(=O)NC5=O)C7=O)CC4)nc3)CC2)CN1c1ccc(C#N)c(Cl)c1 (stereo partly drawn)
DC50 ([1]; read-out: DC50): 0.0156 µM | DC50 [3]: 0.0046 µM | pIC50 [4]: 7.34

CN1CCc2cc3c(cc2CC1)C(=O)N(C1CCC(=O)NC1=O)C3=O (stereo not drawn)
pKi [13]: 5.14

CN1CCN(c2ccc(C(=O)N3CCC4(C3)CN(c3ccc(C#N)c(Cl)c3)C4)cc2)CC1
pIC50 [2]: 5.00

C[C@@H]1CC2(CCN(c3ccc(C(=O)N4CCN(C)CC4)cc3)CC2)CN1c1ccc(C#N)c(Cl)c1
DC50 [1]: Not Active

CN1CCN(c2ccc(C(=O)N3CCC4(CC3)CCN(c3ccc(C#N)c(Cl)c3)C4)cc2)CC1
pIC50 [2]: 5.44

O=C1CCC(N2C(=O)c3ccc(N4CCC4)cc3C2=O)C(=O)N1 (stereo not drawn)
pKi [13]: 6.30
